Results: publication PMC4728560 (Scientific Reports, 2016)

System: BAX
Assay: In cellulo BRET between TCTP and YFP-fused BAX
Format: cell-based
Details: MCF-7 cells; donor TCTP, acceptor YFP-fused BAX
Description: BRET assays were performed as indicated in Bah et al.[41]. See Supplementary Information for full details.
-3Δ before cloning into a pnEA -TH plasmid for expression of an N-terminal 6His fusion protein using NdeI and BamHI restriction sites25. The cDNA of human Bcl-xL protein, target gene bank number BC019307, was ordered from PlasmID (DANA-FARBER/HARVARD CANCER CENTER). Bcl-xL(Δ27-81ΔCT) (deletion of residues 27-81 and C-terminal 24 residues) was cloned in a pnEA-TH25 plasmid for expression as a N-terminal 6His fusion protein. Primers used for the deletion of the C-terminal part are 5'- […]
TTTCG-3', including NdeI and BglII restriction sites respectively. […]
BRET assays were performed as indicated in Bah et al.26. […] Light emissions at 475 nm and 530 nm were measured sequentially using the Mithras ﬂuorescence luminescence detector […]
LB 940 (Berthold, Thoiry, France) after adding the luciferase substrate coelenterazine H (Uptima, MontLucon, France) at a ﬁnal concentration of […]. BRET signals (mB.U,milliBRET Unit) were determined by calculating the ra tio of the light emitted by the acceptor (530 nm) over the light emitted by the donor (475 nm). Background BRET signals, determined by transient transfection of pCMV-Bcl-xL or pCMV-Bax instead of the corresponding pEYFP plasmids, were subtracted from YFP-specific BRET signals. […]

Substance: TCTP: Translationally Controlled Tumor Protein (TCTP/tpt1), recombinant full-length
- BRET signals with BAX: no specific BRET signals
